Experimental data: US8431593B2, “Heteroaryl amide derivatives” (H. Lundbeck A/S, priority 2006, dated 2013)

What follows are compounds tested against T1, P2X7 receptor (Homo sapiens, UniProt Q99572) (assay: P2X7 calcium mobilization assay, high throughput, antagonist activity (Example 4A)). Conditions: 50% decrease in the fluorescence response of cells exposed to 80 μM 2′(3′)-O-(4-benzoyl-benzoyl)adenosine 5′-triphosphate; Example 4A; read-out: IC50.
T1 construct: host or cells: SH-SY5Y
T1 sequence (Q99572 1-595): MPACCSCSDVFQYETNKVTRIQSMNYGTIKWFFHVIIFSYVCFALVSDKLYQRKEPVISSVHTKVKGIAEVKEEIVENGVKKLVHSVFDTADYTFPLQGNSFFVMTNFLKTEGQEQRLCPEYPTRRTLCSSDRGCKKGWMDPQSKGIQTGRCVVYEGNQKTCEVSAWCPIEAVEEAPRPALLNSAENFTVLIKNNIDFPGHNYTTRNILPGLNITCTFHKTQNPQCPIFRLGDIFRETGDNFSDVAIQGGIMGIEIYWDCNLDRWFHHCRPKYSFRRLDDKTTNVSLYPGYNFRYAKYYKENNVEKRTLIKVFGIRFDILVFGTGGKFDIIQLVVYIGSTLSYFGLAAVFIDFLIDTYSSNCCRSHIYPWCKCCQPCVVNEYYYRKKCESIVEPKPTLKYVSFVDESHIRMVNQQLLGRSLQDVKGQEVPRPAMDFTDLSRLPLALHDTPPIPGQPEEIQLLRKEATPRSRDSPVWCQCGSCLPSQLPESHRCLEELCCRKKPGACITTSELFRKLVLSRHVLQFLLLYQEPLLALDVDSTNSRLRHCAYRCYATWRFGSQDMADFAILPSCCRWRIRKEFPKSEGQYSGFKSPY
Assay type: cell-based
In short: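 Antagonism was measured as calcium fluorescence (FLIPR Tetra) in cells seeded one day earlier at 100,000/well, loaded with dye for 1 h and exposed to compound for 1 h at room temperature before agonist. Peak RFU, minus the no-agonist background, was referenced to the mean of the agonist wells.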

SMILES | IC50 [µM]
CC1(C)[C@@H]2CC[C@@H](CNC(=O)c3cccc4nc(CC(=O)N5CCC[C@H]5CN)cn34)[C@H]1C2 [Compound 587, 2-{2-[(2S)-2-(aminomethyl)pyrrolidin-1-yl]-2-oxoethyl}-N-{[(1R,2R,5R)-6,6-dimethylbicyclo [3.1.1]hept-2-yl]methyl}imidazo[1,2-a]pyridine-5-carboxamide] | < 2
CN(C)CCCN(C(=O)c1cn2c(C(=O)NCC34CC5CC(CC(C5)C3)C4)cccc2n1)C1CCNCC1 [Compound 610, 5-N-(adamantan-1-ylmethyl)-2-N-[3-(dimethylamino)propyl]-2-N-piperidin-4-ylimidazo[1,2-a]pyridine-2,5-dicarboxamide] | < 2
CC1(C)[C@@H]2CC[C@@H](CNC(=O)c3cccc4nc(CC(=O)N5CCCCC5CN)cn34)[C@H]1C2 (stereo partly drawn) [Compound 579, 2-{2-[2-(aminomethyl)piperidin-1-yl]-2-oxoethyl}-N-{[(1R,2R,5R)-6,6-dimethylbicyclo[3.1.1]hept-2-yl]methyl}imidazo[1,2-a]pyridine-5-carboxamide] | < 2
O=C(NCC12CC3CC(CC(C3)C1)C2)c1cccc2nc(C[S+]([O-])c3nnc[nH]3)cn12 (stereo not drawn) [Compound 554, N-(adamantan-1-ylmethyl)-2-[(4H-1,2,4-triazol-3-ylsulfinyl)methyl]imidazo [1,2-a]pyridine-5-carboxamide] | < 2
O=C(CC12CC3CC(CC(C3)C1)C2)Nc1cccc2nc(C(=O)N3CCC(CCO)CC3)cn12 [Compound 423, 2-adamantan-1-yl-N-(2-{[4-(2-hydroxyethyl)piperidin-1-yl]carbonyl}imidazo [1,2-a]pyridin-5-yl)acetamide] | < 2
CC1(C)C2CC[C@H](CNC(=O)c3cccc4nc(C(=O)N5CCC[C@@H](N)C5)cn34)C1C2 (relative stereo) [Compound 548, rel-2-{[(3R)-3-aminopiperidin-1-yl]carbonyl}-N-{[(2S)-6,6-dimethylbicyclo[3.1.1]hept-2-yl]methyl}imidazo[1,2-a]pyridine-5-carboxamide] | < 2

Same assay, conditions: 50% decrease in the fluorescence response of cells exposed to 80 μM of 2′(3′)-O-(4-benzoyl-benzoyl)adenosine 5′-triphosphate; Example 4A; read-out: IC50

SMILES | IC50 [µM]
CNC1CCN(C(=O)Cc2cn3c(C(=O)NCC45CC6CC(CC(C6)C4)C5)cccc3n2)C1 (stereo not drawn) [Compound 690, N-(adamantan-1-ylmethyl)-2-{2-[3-(methylamino)pyrrolidin-1-yl]-2-oxoethyl}imidazo[1,2-a]pyridine-5-carboxamide] | < 2
Cn1cc2c(n1)CCN(C(=O)c1cn3c(C(=O)NCC45CC6CC(CC(C6)C4)C5)cccc3n1)C2 [Compound 718, N-(adamantan-1-ylmethyl)-2-[(2-methyl-2,4,6,7-tetrahydro-5H-pyrazolo[4,3-c]pyridin-5-yl)carbonyl]imidazo[1,2-a]pyridine-5-carboxamide] | < 2
CC(C)(C)NCCOC(=O)c1cn2c(C(=O)NCC34CC5CC(CC(C5)C3)C4)cccc2n1 [Compound 696, 2-(tert-butylamino)ethyl 5-[(adamantan-1-ylmethyl)carbamoyl] imidazo[1,2-a] pyridine-2-carboxylate] | < 2
O=C(NCC12CC3CC(CC(C3)C1)C2)c1cccc2nc(C(=O)N3CCCC(C(=O)NCCCO)C3)cn12 (stereo not drawn) [Compound 694, N-(adamantan-1-ylmethyl)-2-({3-[(3-hydroxypropyl)carbamoyl]piperidin-1-yl}carbonyl) imidazo[1,2-a]pyridine-5-carboxamide] | < 2
O=C(NCCCN1CCCC1)c1cn2c(C(=O)NCC34CC5CC(CC(C5)C3)C4)cccc2n1 [Compound 645, 5-N-(adamantan-1-ylmethyl)-2-N-(3-pyrrolidin-1-ylpropyl)imidazo[1,2-a]pyridine-2,5-dicarboxamide] | < 2
O=C(NCC12CC3CC(CC(C3)C1)C2)c1cccc2nc(C(Cc3ccc(Cl)cc3)C(=O)O)cn12 (stereo not drawn) [Compound 804, 2-{5-[(adamantan-1-ylmethyl)carbamoyl]imidazo[1,2-a]pyridin-2-yl}-3-(4-chlorophenyl) propanoic acid] | < 2
CC(C(=O)N1CCC[C@@H](NC(=O)OC(C)(C)C)C1)c1cn2c(C(=O)NCC34CC5CC(CC(C5)C3)C4)cccc2n1 (stereo in doubt) [Compound 750, tert-butyl [1-(2-{5-[(adamantan-1-ylmethyl)carbamoyl]imidazo[1,2-a]pyridin-2-yl}propanoyl)piperidin-3-yl]carbamate] | < 2
CC(Cc1nnn[nH]1)c1cn2c(C(=O)NCC34CC5CC(CC(C5)C3)C4)cccc2n1 (stereo not drawn) [Compound 781, N-(adamantan-1-ylmethyl)-2-[1-methyl-2-(1H-tetrazol-5-yl)ethyl] imidazo[1,2-a] pyridine-5-carboxamide] | < 2
CN(C)C(=O)CC(C(=O)O)c1cn2c(C(=O)NCC34CC5CC(CC(C5)C3)C4)cccc2n1 (stereo not drawn) [Compound 812, 2-{5-[(adamantan-1-ylmethyl)carbamoyl]imidazo[1,2-a]pyridin-2-yl}-4-(dimethylamino)-4-oxobutanoic acid] | < 2
Cc1cnc(N(C)Cc2cn3c(C(=O)NCC45CC6CC(CC(C6)C4)C5)cccc3n2)nc1N [Compound 772, N-(adamantan-1-ylmethyl)-2-{[(4-amino-5-methylpyrimidin-2-yl)(methyl)amino]methyl}imidazo [1,2-a]pyridine-5-carboxamide] | < 2

Same assay, conditions: 50% decrease in the fluorescence response of cells exposed to 80 μM of 2′(3′)-O-(4-benzoyl-benzoyl)adenosine 5′-triphosphate; determined as in Example 4A; read-out: IC50

SMILES | IC50 [µM]
O=C(O)Cc1nnn(Cc2cn3c(C(=O)NCC45CC6CC(CC(C6)C4)C5)cccc3n2)n1 [Compound 903, [2-({5-[(adamantan-1-ylmethyl)carbamoyl]imidazo[1,2-a]pyridin-2-yl}methyl)-2H-tetrazol-5-yl]acetic acid] | < 2
CC(C)N1CCN(C(=O)Cc2cn3c(C(=O)NCC4(c5ccc(Cl)cc5)CCCCC4)cccc3n2)CC1 [Compound 886, N-{[1-(4-chlorophenyl)cyclohexyl]methyl}-2-[2-(4-isopropylpiperazin-1-yl)-2-oxoethyl] imidazo[1,2-a] pyridine-5-carboxamide] | < 2
CCOC(=O)C(CC1CC1)c1cn2c(C(=O)NCC3(c4ccc(Cl)cc4)CCCCC3)cccc2n1 (stereo not drawn) [Compound 1009, ethyl 2-[5-({[1-(4-chlorophenyl)cyclohexyl]methyl}carbamoyl)imidazo[1,2-a]pyridin-2-yl]-3-cyclopropylpropanoate] | < 2

Same assay, conditions: P2X7 calcium mobilization, Example 4A; 50% decrease in the fluorescence response of cells exposed to 80 μM of (2′(3′)-O-(4-benzoyl-benzoyl)adenosine 5′-triphosephate); read-out: IC50

SMILES | IC50 [µM]
CC(=O)c1cn2c(C(=O)NCC(CC(C)C)c3ccc(Cl)cc3)cccc2n1 (stereo not drawn) [Compound 1032, 2-acetyl-N-[2-(4-chlorophenyl)-4-methylpentyl] imidazo[1,2-a] pyridine-5-carboxamlde] | < 2

Same assay, conditions: SH-SY5Y cells; 50% decrease in fluorescence response to 80 μM BzATP; read-out: IC50

SMILES | IC50 [µM]
O=C(NCC12CC3CC(CC(C3)C1)C2)c1cccc2nc(CC(=O)N3CCNCC3)cn12 [Compound 64, N-(adamantan-1-ylmethyl)-2-(2-oxo-2-piperazin-1-ylethyl)imidazo[1,2-a]pyridine-5-carboxamide] | < 2
COCC1CCCCN1C(=O)Cc1cn2c(C(=O)NCC34CC5CC(CC(C5)C3)C4)cccc2n1 (stereo not drawn) [Compound 177, N-(adamantan-1-ylmethyl)-2-{2-[2-(methoxymethyl)piperidin-1-yl]-2-oxoethyl}imidazo[1,2-a]pyridine-5-carboxamide] | < 2
CN(CCCC(C)(C)O)C(=O)Cc1cn2c(C(=O)NCC34CC5CC(CC(C5)C3)C4)cccc2n1 [Compound 59, N-(adamantan-1-ylmethyl)-2-{2-[(4-hydroxy-4-methylpentyl)(meth-yl)amino]-2-oxoethyl}imidazo[1,2-a]pyridine-5-carboxamide] | < 2

Same assay, conditions: fluorescence response of cells exposed to 80 μM 2′(3′)-O-(4-benzoyl-benzoyl)adenosine 5′-triphosphate; Example 4A; read-out: IC50

SMILES | IC50 [µM]
CC(C)CC(CNC(=O)c1cccc2nc(CC(=O)NC3CCCC3)cn12)c1ccccc1 (stereo not drawn) [Compound 224, 2-[2-(cyclopentylamino)-2-oxoethyl]-N-(4-methyl-2-phenylpentyl) imidazo [1,2-a]pyridine-5-carboxamide] | < 2
O=C(NCCC1CC2CCC1C2)c1cccc2nc(CN3CCOCC3)cn12 (stereo not drawn) [Compound 344, N-(2-bicyclo[2.2.1]hept-2-ylethyl)-2-(morpholin-4-ylmethyl)imidazo[1,2-a]pyridine-5-carboxamide] | < 2
CS(=O)(=O)NC1CCN(C(=O)c2cn3c(NC(=O)CC45CC6CC(CC(C6)C4)C5)cccc3n2)CC1 [Compound 398, 2-adamantan-1-yl-N-[2-({4-[(methylsulfonyl)amino]piperidin-1-yl}carbonyl)imidazo [1,2-a]pyridin-5-yl]acetamide] | < 2
COC(=O)C1CCCN1C(=O)c1cn2c(NC(=O)CC34CC5CC(CC(C5)C3)C4)cccc2n1 (stereo not drawn) [Compound 376, methyl 1-({5-[(adamantan-1-ylacetyl)amino]imidazo [1,2-a]pyridin-2-yl}carbonyl)prolinate] | < 2
